From US8603527B2, “Pharmaceutical formulations of a substituted diaminopurine” (Signal Pharmaceuticals, LLC, priority 2010, dated 2013)
Where two headings read alike, the source gives them in different places.

Experiments:
[1] = Aqueous solubility; assay type: physicochemical; details: aqueous medium
[2] = Oral developmental toxicity study in the rat; assay type: in vivo; details: female, CD [Crl:CD(SD)], rat, in vivo, oral; rats; read-out: NOAEL for maternal toxicity
Experimental: (§1) Compound I was administered orally to four groups of 25 time-mated female CD®[Crl:CD®(SD)] rats/group at dose levels of 0 (vehicle, 1.0% carboxymethylcellulose/0.25% TWEEN® 80), 25, 50, or 100 mg/kg/day from Gestation Days (GD) 6 to 17. In addition, four groups of five time-mated females/group served as toxicokinetic (TK) animals and received the vehicle or test article in the same manner as the main study groups.

[3] = tested on: time-mated female CD [Crl:CD(SD)] rats; experiment: Oral developmental toxicity study in the rat; assay type: in vivo
Experimental: as §1

[4] = Toxicokinetics in pregnant female rabbits; assay type: in vivo, rabbit; details: for Kp / AUC / Cmax: female, New Zealand White Hra:(NZW)SPF, rabbit; for Kp: fetal plasma / maternal plasma, oral, Gestation Day 19, calculated from individual ratios, read-out: Fetal:Maternal Plasma Ratio; for Kp / Doe plasma concentration / Fetus concentration (pooled fetal blood samples): rabbits; for AUC / Cmax: po, pregnant rabbits; for Doe plasma concentration / Fetus concentration (pooled fetal blood samples): 2 hours after dosing on Gestation Day 19
Description: (§2) Additionally, four groups of five animals/group served as toxicokinetic (TK) animals and received the vehicle or test article in the same manner and dose levels as the main study groups. All time-mated females arrived at the laboratory on GD 0, the day evidence of mating was observed.

[5] = Pharmacokinetics of a single ascending oral dose in healthy male subjects; assay type: in vivo, human; details: for AUC(0-inf) / AUC(0-t) / Cmax / half-life / Vd/F / Tmax: human, in vivo; for Vd/F: read-out: Vz/F
Experimental: Methods: The study was a randomized, double-blind, placebo-controlled, single-ascending-dose trial. Forty-five healthy male subjects were enrolled into 1 of the 5 cohorts (active:placebo=7:2 per cohort). Subjects received single oral doses of 5 mg, 25 mg, 50 mg, 100 mg or 200 mg of unformulated Compound I in a capsule, or matching placebo.

[6] = tested on: time-mated female New Zealand White Hra:(NZW)SPF rabbits; details: rabbit, in vivo, 10 mg/kg/day
Description: as §2

[7] = plasma, 10 mg/kg/day, 10 mg/kg/d oral, Gestation Day 7
[8] = plasma, 10 mg/kg/day, 10 mg/kg/d oral, Gestation Day 18
[9] = plasma, 20 mg/kg/day, 20 mg/kg/d oral, Gestation Day 7
[10] = plasma, 40 mg/kg/day, 40 mg/kg/d oral, Gestation Day 7
[11] = plasma, 40 mg/kg/day, 40 mg/kg/d oral, Gestation Day 18
[12] = single oral dose 5 mg, unformulated in capsule, healthy male subjects, geometric mean
[13] = single oral dose 25 mg, unformulated in capsule, healthy male subjects, geometric mean
[14] = single oral dose 50 mg, unformulated in capsule, healthy male subjects, geometric mean
[15] = single oral dose 100 mg, unformulated in capsule, healthy male subjects, geometric mean
[16] = single oral dose 200 mg, unformulated in capsule, healthy male subjects, geometric mean
[17] = male, single oral doses 5-200 mg

SMILES: O[C@H]1CC[C@H](Nc2ncc3nc(Nc4c(F)cc(F)cc4F)n([C@H]4CCOC4)c3n2)CC1 [Compound I, 4-((9-((3S)-tetrahydro-3-furanyl)-8-((2,4,6-trifluorophenyl)amino)-9H-purin-2-yl)amino)-trans-cyclohexanol]
- solubility [1]: < 1000 µg/mL
- NOAEL [2]: 25 mg/kg/day
- doses at which developmental effects were observed ([3]; female, CD [Crl:CD(SD)], rat, in vivo): > 25 mg/kg/day
- teratogenicity ([3]; rat, in vivo): teratogenic
- maternal toxicity ([3]; rat, in vivo, 25 mg/kg/day): No maternal toxicity
- incidence of fetal malformations involving heart and aortic vessels, ribs, and/or vertebrae ([3]; rat, in vivo, 100 mg/kg/day): slight increase
- post implantation loss index ([3]; rat, in vivo, 100 mg/kg/day): increased
- fetal weights lower than controls ([3]; rat, in vivo, po, 25 mg/kg/day): about 6%
- fetal body weights lower than controls ([3]; rat, in vivo, po, 50 mg/kg/day): about 11%
- fetal body weights lower than controls ([3]; rat, in vivo, po, 100 mg/kg/day): ~27%
- NOEL for developmental toxicity ([3]; rats): 25 mg/kg/day
- lowest observed effect level (LOEL), developmental effects ([3]; rats): 25 mg/kg/day
- Kp ([4]; 10 mg/kg/day, 10 mg/kg/d): 0.1
- Kp ([4]; 20 mg/kg/day, 20 mg/kg/d): 0.09
- Kp ([4]; 40 mg/kg/day, 40 mg/kg/d): 0.24
- AUC ([4]; in vivo, 20 mg/kg/day, 20 mg/kg/d oral, Gestation Day 18): 85000 ng·h/mL
- AUC [4, 7]: 35200 ng·h/mL
- Cmax [4, 7]: 6520 ng/mL
- AUC [4, 8]: 39300 ng·h/mL
- Cmax [4, 8]: 6730 ng/mL
- AUC [4, 9]: 79100 ng·h/mL
- Cmax [4, 9]: 12500 ng/mL
- Cmax ([4]; plasma, 20 mg/kg/day, 20 mg/kg/d oral, Gestation Day 18): 13200 ng/mL
- AUC [4, 10]: 152000 ng·h/mL
- Cmax [4, 10]: 21200 ng/mL
- AUC [4, 11]: 152000 ng·h/mL
- Cmax [4, 11]: 21500 ng/mL
- maternal AUC as fold of human AUC ([4]; rabbits at NOAEL 20 mg/kg/day vs human 100 mg BID): ~3.4 fold
- maternal AUC as fold of human AUC ([4]; rabbits at NOAEL 20 mg/kg/day vs human 200 mg BID): ~1.6 fold
- Doe plasma concentration ([4]; 10 mg/kg/d): 4916 ng/mL
- Fetus concentration (pooled fetal blood samples) ([4]; 10 mg/kg/d): 465.7 ng/mL
- Doe plasma concentration ([4]; 20 mg/kg/d): 9217 ng/mL
- Fetus concentration (pooled fetal blood samples) ([4]; 20 mg/kg/d): 870.7 ng/mL
- Doe plasma concentration ([4]; 40 mg/kg/d): 15594 ng/mL
- Fetus concentration (pooled fetal blood samples) ([4]; 40 mg/kg/d): 3426 ng/mL
- AUC(0-inf) [5, 12]: 625 ng·h/mL
- AUC(0-t) [5, 12]: 567 ng·h/mL
- Cmax [5, 12]: 34.7 ng/mL
- half-life [5, 12]: 19.1 h
- Vd/F [5, 12]: 221 L
- Tmax ([5]; single oral dose 5 mg, unformulated in capsule, healthy male subjects, median (min-max), read-out: Tmax): 1.5 h
- AUC(0-inf) [5, 13]: 3600 ng·h/mL
- AUC(0-t) [5, 13]: 3150 ng·h/mL
- Cmax [5, 13]: 163 ng/mL
- half-life [5, 13]: 24.1 h
- Vd/F [5, 13]: 241 L
- Tmax ([5]; single oral dose 25 mg, unformulated in capsule, healthy male subjects, median (min-max), read-out: Tmax): 1.5 h
- AUC(0-inf) [5, 14]: 7320 ng·h/mL
- AUC(0-t) [5, 14]: 6700 ng·h/mL
- Cmax [5, 14]: 367 ng/mL
- half-life [5, 14]: 20.4 h
- Vd/F [5, 14]: 202 L
- Tmax ([5]; single oral dose 50 mg, unformulated in capsule, healthy male subjects, median (min-max), read-out: Tmax): 2 h
- AUC(0-inf) [5, 15]: 13600 ng·h/mL
- AUC(0-t) [5, 15]: 10800 ng·h/mL
- Cmax [5, 15]: 471 ng/mL
- half-life [5, 15]: 27.5 h
- Vd/F [5, 15]: 293 L
- Tmax ([5]; single oral dose 100 mg, unformulated in capsule, healthy male subjects, median (min-max), read-out: Tmax): 2 h
- AUC(0-inf) [5, 16]: 26400 ng·h/mL
- AUC(0-t) [5, 16]: 23100 ng·h/mL
- Cmax [5, 16]: 1430 ng/mL
- half-life [5, 16]: 25 h
- Vd/F [5, 16]: 273 L
- Tmax ([5]; single oral dose 200 mg, unformulated in capsule, healthy male subjects, median (min-max), read-out: Tmax): 1.5 h
- AUC(0-inf) [5, 17]: 600 to 27000 ng·h/mL
- AUC(0-t) [5, 17]: 500 to 24000 ng·h/mL
- Cmax [5, 17]: 30 to 1500 ng/mL
- half-life [5, 17]: 19 to 28 h
- Tmax ([5]; male, single oral doses 5-200 mg, unformulated in a capsule, healthy males, read-out: median Tmax): 1.5 to 2 h
- Vd/F [5, 17]: 200 to 300 L
- urinary excretion of unchanged Compound I ([5]; over 72 hrs post-dose, single oral doses): 9-13 % of the administered dose
- CLF [5, 12]: 133.36 mL/min
- CLF [5, 13]: 115.58 mL/min
- CLF [5, 14]: 113.88 mL/min
- CLF [5, 15]: 122.89 mL/min
- CLF [5, 16]: 126.02 mL/min
- CLF ([5]; single oral doses 5-200 mg): 100 to 140 mL/min
- maternal or developmental toxicity [6]: No maternal or developmental toxicity
